From patent US4346087A, “Antibacterial surface active agent containing azaalkenelactam” (priority 1979, dated 1982)
≈ marks a conversion by molar mass, not a printed value. Read-outs that look alike come from different tables or passages of the source.

Assays:
Format in all cases: cell-based
[1] = test system: Desulfovibrio desulfuricans IFO 13699; assay: MIC against Desulfovibrio desulfuricans
Text: (§1) Below are described the antibacterial activities of the compounds in the compositions according to this invention.
(§2) The testing method complied with the standard method of Japan Sociaty of Chemotherapy.

[2] = test system: Staphylococcus aureus FDA 209P; assay: MIC against Staphylococcus aureus FDA 209P
Text: as §1, §2

Escherichia coli NIHJ = assay: MIC against Escherichia coli NIHJ
Text: as §1, §2

[3] = Desulfovibrio desulfuricans, IFO13699, 24 h
[4] = Staphylococcus aureus, FDA209P, 24 h
[5] = Escherichia coli, Table 2, derivatives having a carboxylate radical, heart infusion agar, 37° C., 24 hours, read-out: MIC
[6] = Escherichia coli, Table 1, azaalkenelactams, heart infusion agar, 37° C., 24 hours, read-out: MIC
[7] = Table 2, derivatives having a carboxylate radical, heart infusion agar, 37° C., 24 hours
[8] = Staphylococcus aureus, FDA209P, Table 2, derivatives having a carboxylate radical, heart infusion agar, 37° C., 24 hours, read-out: MIC

Row | Compound | MIC [1, 3] [µg/mL] | MIC [2, 4] [µg/mL] | MIC (Escherichia coli NIHJ; Escherichia coli, 24 h) [µg/mL] | also measured
1 | CCCCCCCCCCC(O)CN1CCN=C(C)CC1=O (stereo not drawn) [Example 26, 4-(2-hydroxy)dodecyl-7-methyl-3,6-dihydro-2H-1,4-diazepin-5-one] | 12.5 (≈ 40.3 µM) | 50 (≈ 161 µM) | 50 (≈ 161 µM) | 
2 | CCCCCCCCOCCCN1CC[N+](CC(=O)[O-])=CC(C)(C)C1=O [4-oxtoxypropyl-6,6-dimethyl-1-azonia-4-azacyclohept-7-en-5-one-1-acetate] | 50 (≈ 136 µM) | 200 (≈ 543 µM) |  | MIC (Escherichia coli NIHJ; [5]): 800 µg/mL (≈ 2170 µM)
3 | CCCCCCC(O)CC=CCCCCCCCC(=O)OC(C)CN1CCCN=C(C)CC1=O (stereo not drawn) [Example 21] | 25 (≈ 52.2 µM) | 50 (≈ 104 µM) |  | MIC (Escherichia coli NIHJ; [6]): 800 µg/mL (≈ 1670 µM)
4 | 4-(2-hydroxyhexadecyl)aminoethyl-6-methyl-1-azonia-4-azacyclohept-7-en-5-one-1-acetate |  |  |  | MIC [1, 7]: 3.12 µg/mL; MIC [2]: 12.5 µg/mL; MIC (Escherichia coli NIHJ): 100 µg/mL
5 | CCCCCCCCCc1ccc(OCC(O)CNCCNCCNCCN2CC[N+](CC(=O)[O-])=C(C)CC2=O)cc1 (stereo not drawn) [4-nonylphenoxy(2-hydroxy)propylaminoethylaminoethylaminoethyl-7-methyl-1-azonia-4-azacyclohept-7-en-5-one-1-acetate] | 50 (≈ 84.8 µM) | 100 (≈ 170 µM) |  | MIC (Escherichia coli NIHJ; [5]): 800 µg/mL (≈ 1360 µM)
6 | CCCCCCCC/C=C\CCCCCCCC(=O)OCCN1CC[N+](CC(=O)[O-])=C(C)CC1=O [4-oleoyloxyethyl-7-methyl-1-azonia-4-azacyclohept-7-en-5-one-1-acetate] | 25 (≈ 50.7 µM) | 200 (≈ 406 µM) |  | MIC (Escherichia coli NIHJ; [5]): 3200 µg/mL (≈ 6490 µM)
7 | CCCCCCCCCc1ccc(OCCOCCN2CCC[N+](CC(=O)[O-])=C(C)CC2=O)cc1 [1-nonylphenylpoly(2 moles)oxyethyleneoxyethyl-4-methyl-1-aza-5-azoniacyclooct-4-en-2-one-5-acetate] | 25 (≈ 51.2 µM) | 12.5 (≈ 25.6 µM) | 200 (≈ 409 µM) | 
8 | CCCCCCCC(=O)NCCN1CC[N+](CC(=O)[O-])=C(C)CC1=O [4-octamidoethyl-7-methyl-1-azonia-4-azacyclohept-7-en-5-one-1-acetate] | 50 (≈ 141 µM) |  | 100 (≈ 283 µM) | MIC [2, 8]: 800 µg/mL (≈ 2260 µM)
9 | CCCCCCCCCCC(O)CN1CCN=CC(C)C1=O (stereo not drawn) [Example 43, 4-(2-hydroxy)dodecyl-6-methyl-3,6-dihydro-2H-1,4-diazepin-5-one] | 12.5 (≈ 40.3 µM) | 12.5 (≈ 40.3 µM) | 400 (≈ 1290 µM) | 
10 | CCCCCCCCCCCCCCCCN1CC[N+](CC(=O)[O-])=C(C)CC1=O [4-hexadecyl-7-methyl-1-azonia-4-azacyclohept-7-en-5-one-1-acetate] | 12.5 (≈ 30.6 µM) | 100 (≈ 245 µM) |  | MIC (Escherichia coli NIHJ; [5]): 3200 µg/mL (≈ 7830 µM)
11 | CCCCCCCCOCCCN1CC[N+](CC(=O)[O-])=C(C)CC1=O [4-octoxypropyl-7-methyl-1-azonia-4-azacyclohept-7-en-5-one-1-acetate] | 50 (≈ 141 µM) | 50 (≈ 141 µM) |  | MIC (Escherichia coli NIHJ; [5]): 1600 µg/mL (≈ 4510 µM)
12 | CCCCCCCCc1ccc(OCCOC(C)COC(C)CN2CCN=C(C)CC2=O)cc1 (stereo not drawn) [Example 19] | 25 (≈ 52.7 µM) | 50 (≈ 105 µM) | 400 (≈ 843 µM) | 
13 | CCCCCCCCCCCCN1CCC[N+](CC(=O)[O-])=CC(C)C1=O (stereo not drawn) [1-dodecyl-3-methyl-1-aza-5-azoniacyclooct-4-en-2-one-5-acetate] | 25 (≈ 68.2 µM) | 50 (≈ 136 µM) |  | MIC (Escherichia coli NIHJ; [5]): 1600 µg/mL (≈ 4370 µM)
14 | CCCCCCCCCc1ccc(OCC(O)CNCCNCCNCCN2CC[N+](CC(=O)[O-])=CCC(C)C2=O)cc1 (stereo not drawn) [4-nonylphenoxy(2-hydroxy)propylaminoethylaminoethylaminoethyl-6-methyl-4-aza-1-azoniacyclooct-8-en-5-one-1-acetate] | 50 (≈ 82.8 µM) | 200 (≈ 331 µM) | 400 (≈ 662 µM) | 
15 | 4-octoxy(2-hydroxy)propyl-7-methyl-3,6-dihydro-2H-1,4-diazepin-5-one [Example 31] |  |  |  | MIC [1]: 50 µg/mL; MIC [2]: 50 µg/mL; MIC (Escherichia coli NIHJ): 400 µg/mL
16 | 4-methylbenzylpoly(2 moles)oxypropyleneoxypropyl-6-methyl-4-aza-1-azoniacyclooct-8-en-5-one-1-acetate |  |  |  | MIC [1]: 25 µg/mL; MIC [2]: 400 µg/mL; MIC (Escherichia coli NIHJ; [7]): 800 µg/mL
17 | CCCCCCCCC=CCCCCCCCCN1CCCN=C(C)CC1=O [Example 4, 1-(9-octadecenyl)-4-methyl-3,6,7,8-tetrahydro-1,5-diazocin-2-one] | 12.5 (≈ 32 µM) | 25 (≈ 64 µM) |  | MIC (Escherichia coli NIHJ; [6]): 800 µg/mL (≈ 2050 µM)
18 | CCCCCC[C@@H](O)C/C=C\CCCCCCCC(=O)NCCN1CCN=CC(C)(C)C1=O [Example 64, 4-ricinolamidoethyl-6,6-dimethyl-3-hydro-2H-1,4-diazepin-5-one] | 25 (≈ 53.9 µM) | 200 (≈ 431 µM) | 400 (≈ 863 µM) | 
19 | CCCCCCCCCCCC[N+](C)(C)CC(=O)[O-] [Lauryldimethylbetaine, lauryldimethylbetaine, reference compound] |  |  |  | MIC ([1]; Desulfovibrio desulfuricans, IFO13699, Table 2, derivatives having a carboxylate radical, heart infusion agar, 37° C., 24 hours, read-out: MIC): 1600 µg/mL (≈ 5890 µM); MIC [2, 8]: ≥ 10000 µg/mL; MIC (Escherichia coli NIHJ; [5]): ≥ 10000 µg/mL

Row | Compound | MIC [1, 3] [µg/mL] | MIC [2, 4] [µg/mL] | MIC (Escherichia coli NIHJ; Escherichia coli, 24 h) [µg/mL] | also measured
20 | CCCCCCCCC=CCCCCCCCCN1CCN=CCCC1=O [Example 55, 4-(9-octadecenyl)-2,3,6,7-tetrahydro-1,4-diazocin-5-one] | 50 (≈ 133 µM) | 100 (≈ 266 µM) | 200 (≈ 531 µM) | 
21 | CCCCCCCCCCCCNCCN1CC[N+](CC(=O)[O-])=C(C)CC1=O [4-dodecylaminoethyl-7-methyl-1-azonia-4-azacyclohept-7-en-5-one-1-acetate] | 12.5 (≈ 31.6 µM) | 50 (≈ 126 µM) | 100 (≈ 253 µM) | 
22 | CCCCCCCCCCCC(=O)NCCN1CCN=CC(C)C1=O (stereo not drawn) [Example 46, 4-lauramidoethyl-6-methyl-3,6-dihydro-2H-1,4-diazepin-5-one] | 6.25 (≈ 17.8 µM) | 6.25 (≈ 17.8 µM) | 25 (≈ 71.1 µM) | 
23 | CCCCCCCC/C=C\CCCCCCCC(=O)NCCN1CCN=C(C)CC1=O [Example 10, 4-oleamidoethyl-7-methyl-3,6-dihydro-2H-1,4-diazepin-5-one] | 6.25 (≈ 14.4 µM) | 50 (≈ 115 µM) |  | MIC (Escherichia coli NIHJ; [6]): 1600 µg/mL (≈ 3690 µM)
24 | CCCCCCCCCc1ccc(OCC(O)CNCCNCCNCCN2CCN=CC(C)C2=O)cc1 (stereo not drawn) [Example 52, 4-nonylphenoxy(2-hydroxy)propylaminoethylaminoethylaminoethyl-6-methyl-3,6-dihydro-2H-1,4-diazepin-5-one] | 50 (≈ 94 µM) |  |  | MIC ([2]; Staphylococcus aureus, FDA209P, Table 1, azaalkenelactams, heart infusion agar, 37° C., 24 hours, read-out: MIC): 100 µg/mL (≈ 188 µM); MIC (Escherichia coli NIHJ; [6]): 100 µg/mL (≈ 188 µM)
25 | CCCCCCCCCCCCCCCCN1CCN=C(C)CC1=O [Example 5, 4-hexadecyl-7-methyl-3,6-dihydro-2H-1,4-diazepin-5-one] | 6.25 (≈ 17.8 µM) | 12.5 (≈ 35.7 µM) |  | MIC (Escherichia coli NIHJ; [6]): 3200 µg/mL (≈ 9130 µM)
26 | CCCCCCCCCCCCNCCNCCNCCCN1CCC[N+](CC(=O)[O-])=C(C)CC1=O [1-dodecylaminoethylaminoethylaminopropyl-4-methyl-1-aza-5-azoniacyclooct-4-en-2-one-5-acetate] | 25 (≈ 49 µM) | 12.5 (≈ 24.5 µM) | 100 (≈ 196 µM) | 
27 | CC1=[N+](CC(=O)[O-])CCN(CC(C)OCC(C)OCC(C)OCc2ccc(C)cc2)C(=O)C1 (stereo not drawn) [4-methylbenzylpoly(2 moles)oxypropyleneoxypropyl-7-methyl-1-azonia-4-azacyclohept-7-en-5-one-1-acetate] | 50 (≈ 108 µM) | 50 (≈ 108 µM) | 400 (≈ 865 µM) | 
28 | CCCCCCCC/C=C\CCCCCCCC(=O)OCCN1CCN=C(C)CC1=O [Example 13, 4-oleoyloxyethyl-7-methyl-3,6-dihydro-2H-1,4-diazepin-5-one] | 12.5 (≈ 28.8 µM) | 100 (≈ 230 µM) |  | MIC (Escherichia coli NIHJ; [6]): 1600 µg/mL (≈ 3680 µM)
29 | 1-behenoyloxypropyl-4-methyl-1-aza-5-azoniacyclooct-4-en-2-one-5-acetate |  |  |  | MIC [1]: 50 µg/mL; MIC [2]: 100 µg/mL; MIC (Escherichia coli NIHJ; [7]): 3200 µg/mL
30 | CCCCCCCCCc1ccc(OCC(O)CNCCNCCNCCN2CC[N+](CC(=O)[O-])=CC(C)C2=O)cc1 (stereo not drawn) [4-nonylphenoxy(2-hydroxy)propylaminoethylaminoethylaminoethyl-6-methyl-1-azonia-4-azacyclohept-7-en-5-one-1-acetate] | 50 (≈ 84.8 µM) | 200 (≈ 339 µM) | 400 (≈ 678 µM) | 
31 | 1-nonylphenylpoly(2 moles)oxyethyleneoxyethyl-3,3-dimethyl-1-aza-5-azoniacyclooct-4-en-2-one-5-acetate |  |  |  | MIC [1]: 50 µg/mL; MIC [2]: 100 µg/mL; MIC (Escherichia coli NIHJ): 400 µg/mL
32 | 1-behenoyloxypropyl-3-methyl-1-aza-5-azoniacyclooct-4-en-2-one-5-acetate |  |  |  | MIC [1]: 25 µg/mL; MIC [2]: 50 µg/mL; MIC (Escherichia coli NIHJ): 100 µg/mL
33 | CCCCCCCCCCCCCCNCCN1CCC[N+](C(C)C(=O)[O-])=CC(C)C1=O (stereo not drawn) [1-tetradecylaminoethyl-3-methyl-1-aza-5-azoniacyclooct-4-en-2-one-5-propionate] | 6.25 (≈ 13.8 µM) | 6.25 (≈ 13.8 µM) | 100 (≈ 221 µM) | 
34 | CCCCCCCCCCCCC(O)CNCCN1CC[N+](CC(=O)[O-])=C(C)CC1=O (stereo not drawn) [4-(2-hydroxytetradecyl)aminoethyl-7-methyl-1-azonia-4-azacyclohept-7-en-5-one-1-acetate] | 12.5 (≈ 28.4 µM) | 50 (≈ 114 µM) | 100 (≈ 227 µM) | 
35 | CCCCCCCCCCCCCCCCCCCCCCNCCN1CCN=C(C)CC1=O [Example 22, 4-docosylaminoethyl-7-methyl-3,6-dihydro-2H-1,4-diazepin-5-one] | 12.5 (≈ 26.2 µM) | 25 (≈ 52.3 µM) |  | MIC (Escherichia coli NIHJ; [6]): 800 µg/mL (≈ 1670 µM)
36 | 1-(2-hydroxy)dodecyl-3-methyl-1-aza-5-azoniacyclooct-4-en-2-one-5-acetate |  |  |  | MIC [1]: 50 µg/mL; MIC [2]: 100 µg/mL; MIC (Escherichia coli NIHJ; [7]): 1600 µg/mL
37 | 4-octoxy(2-hydroxy)propyl-7-methyl-1-azonia-4-azacyclohept-7-en-5-one-1-acetate |  |  |  | MIC [1]: 25 µg/mL; MIC [2]: 100 µg/mL; MIC (Escherichia coli NIHJ; [7]): 800 µg/mL
38 | 4-isostearamidoethyl-7-methyl-1-azonia-4-azacyclohept-7-en-5-one-1-acetate |  |  |  | MIC [1]: 25 µg/mL; MIC [2]: 50 µg/mL; MIC (Escherichia coli NIHJ; [7]): 3200 µg/mL
